Measurements taken from paper PMC3227451, “Structure-based development of novel sirtuin inhibitors” (Aging (Albany NY), 2011).
Where two headings read alike, the source gives them in different places.

Tests used:
Format in all cases: biochemical
Sirt2 = target: T1, Sirt2 (Homo sapiens, UniProt Q8IXJ6); test: Fluor-de-Lys peptide deacetylation assay, Sirt2
T1 sequence (Q8IXJ6 34-356): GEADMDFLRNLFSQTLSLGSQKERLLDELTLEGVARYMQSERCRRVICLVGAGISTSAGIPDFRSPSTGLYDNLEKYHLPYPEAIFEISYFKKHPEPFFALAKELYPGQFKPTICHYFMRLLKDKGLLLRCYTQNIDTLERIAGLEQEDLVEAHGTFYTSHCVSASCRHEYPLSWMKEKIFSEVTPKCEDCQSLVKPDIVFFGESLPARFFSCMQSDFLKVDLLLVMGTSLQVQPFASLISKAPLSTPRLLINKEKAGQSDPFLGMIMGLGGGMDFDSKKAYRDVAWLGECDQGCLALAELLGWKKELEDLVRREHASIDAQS
Experimental: The Sirt2 construct was expressed in E. coli Rosetta2 cells (Merck) in LB/Ampicillin/Chloramphenicol medium. Cells were grown at 37 °C, and expression induced at an OD600 of 0.6-0.8 for 4 h with 0.5 mM IPTG. Harvested cells were resuspended in buffer A (50 mM Tris/HCl pH 7.8, 200 mM NaCl, 2 mM DTT), disrupted with a Sonifier, and cell debris removed by 40 min centrifugation at 4 °C, 18000 rpm in a HFA22.50 rotor. The supernatant was supplemented with 10 mM imidazole and incubated with Ni-NTA resin for 1 h at 4 °C. […] The protein was concentrated in an amicon unit (Millipore, Billerica, USA) and digested over night at 4 °C with TEV-protease. The protease was removed from cleaved Sirt2 by incubation with Ni-NTA resin for 1 h at 4 °C. The protein was concentrated, 1:5 diluted with 50 mM Tris/HCl, pH 7.8, and applied to a HiTrap Q anion exchange column (GE Healthcare) equilibrated with 50 mM Tris/HCl, pH 7.8, 50 mM NaCl, 2 mM DTT and eluted with a gradient (20 column volumes) to 50 mM Tris/HCl, pH 7.8, 1 M NaCl, 2 mM DTT. Sirt2 was then applied to a Superdex200 gel filtration column (GE Healthcare) equilibrated in 20 mM Tris/HCl, pH 7.8, 150 mM NaCl, 2 mM DTT. The eluted protein was analyzed by SDS-PAGE, re-concentrated, and shock-frozen in liquid nitrogen for storage at -80 °C.
(§1) The commercial Fluor-de-Lys (FdL) assay kits 1 and 2 (Biomol, Plymouth Meeting, USA) were used to test the deacetylase activity of the four Sirtuins. In both kits the substrate derived from p53 is composed of three amino acids, the acetyl lysine and a C-terminally attached fluorophor. For Sirt2 and 3, FdL-2 peptide (QPK(acetyl-K)) was used, and FdL-1 peptide (RHK(acetyl-K)) for Sirt5 and Sirt6. All tests were done with 0.1 mM of the respective FdL peptide and 0.5 mM NAD^+ as substrates.
(§2) NCI compound stocks were prepared by dissolving them in DMSO at a concentration of 5 mM. The initial screens with all 40 compounds contained 5 μl Sirtuin solution (Sirt2/3 0.1 mg/ml stock concentration; Sirt5/6 1 mg/ml), 1 μl of compound stock (resulting in a 100 μM end concentration), 15 μl FdL substrate, and assay buffer (supplied in the assay kit) to a total volume of 50 μl. As control reactions, peptide with either the compound (without Sirtuin) or with Sirtuin and DMSO instead of compound were measured. After starting the reactions by adding the FdL substrate, assays were incubated for 30 min at 37 °C. Subsequently, 50 μl of a 10 mg/ml trypsin stock (“Developer solution”) were added and the reactions were incubated for 45 min at room temperature. Fluorescence values were measured in a fluorometric plate reader with excitation at 360 nm and read out at 485 nm. Values were then corrected with the control reaction (same compound, but without Sirtuin).
(§3) All measurements shown are averages of duplicates (screen) or triplicates (dose-response curves), and representatives of at least two independent replications. Error bars indicate standard deviations.

Sirt3 = target: T2, Sirt3 (Homo sapiens, UniProt Q9NTG7); test: Fluor-de-Lys peptide deacetylation assay, Sirt3
T2 construct: Sirt3 residues 114-399; His-tag with linker comprising a TEV protease cleavage site (N); made in house; host or cells: E. coli
T2 sequence (Q9NTG7 114-399): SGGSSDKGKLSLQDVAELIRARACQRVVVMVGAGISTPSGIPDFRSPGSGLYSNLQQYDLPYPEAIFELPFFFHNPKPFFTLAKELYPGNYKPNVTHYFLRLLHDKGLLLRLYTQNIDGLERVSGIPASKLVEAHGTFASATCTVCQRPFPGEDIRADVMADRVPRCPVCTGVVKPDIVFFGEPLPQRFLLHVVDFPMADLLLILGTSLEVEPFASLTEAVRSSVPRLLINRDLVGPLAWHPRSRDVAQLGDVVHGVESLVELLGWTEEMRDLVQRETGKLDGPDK
Experimental: (§4) Sirt3 was expressed in E. coli and purified via Ni-NTA and size exclusion chromatography as described elsewhere, and Sirt5 according to the protocol of Schuetz et al.. […] The protein was bound to the HiTrapQ column in buffer A and eluted in a gradient to buffer A supplemented with 400 mM KCl. Fractions were analyzed by SDS-PAGE, and the Sirt1 fractions were pooled and transferred into buffer A using a NAP column (GE Healthcare).
as §1, §2, §3

Sirt5 = target: T3, Sirt5 (Homo sapiens, UniProt Q9NXA8); test: Fluor-de-Lys peptide deacetylation assay, Sirt5
T3 construct: Sirt5 residues 34-302; His-tag with linker comprising a TEV protease cleavage site (N); made in house
T3 sequence (Q9NXA8 34-302): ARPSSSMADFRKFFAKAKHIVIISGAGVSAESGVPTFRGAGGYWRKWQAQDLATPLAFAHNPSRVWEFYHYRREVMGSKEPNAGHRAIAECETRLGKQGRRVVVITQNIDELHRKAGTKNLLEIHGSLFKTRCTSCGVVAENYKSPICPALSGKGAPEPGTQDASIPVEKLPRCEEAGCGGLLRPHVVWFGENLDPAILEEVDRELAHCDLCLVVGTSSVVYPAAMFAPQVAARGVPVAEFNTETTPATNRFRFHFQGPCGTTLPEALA
Experimental: as §4, §1, §2, §3

Sirt6 = target: T4, Sirt6 (Homo sapiens, UniProt Q8N6T7); test: Fluor-de-Lys peptide deacetylation assay, Sirt6
T4 construct: Sirt6 residues 13-308; His-tag with linker comprising a TEV protease cleavage site (N, cleaved yes); made in house; host or cells: E. coli Rosetta2
Experimental: as §1, §2, §3

[1] = 100 μM compound, 0.1 mM FdL-2 peptide, 0.5 mM NAD+
[2] = 100 μM compound, 0.1 mM FdL-1 peptide, 0.5 mM NAD+

T4 sequence (Q8N6T7 13-308): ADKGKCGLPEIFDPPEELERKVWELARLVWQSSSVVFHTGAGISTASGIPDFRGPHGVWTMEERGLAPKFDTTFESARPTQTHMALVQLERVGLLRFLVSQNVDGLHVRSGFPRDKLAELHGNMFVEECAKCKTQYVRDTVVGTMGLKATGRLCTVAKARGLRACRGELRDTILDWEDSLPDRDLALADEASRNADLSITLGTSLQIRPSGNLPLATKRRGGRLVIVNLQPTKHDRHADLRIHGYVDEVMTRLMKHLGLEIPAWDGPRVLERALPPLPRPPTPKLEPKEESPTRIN

## 7-(1-naphthyl)-7^5-dibenzo[a,j]phenazin-5-amine compound with 7-(1-naphthyl)-7^5-dibenzo[a,j]phenazine-5,9-diamine (1:1), (Sudan Red) [CSC1]
Sirt2; [1]
  Effect on the activity of Sirt2: inhibition^a (significant inhibitory effects (>25% loss of activity))
Sirt3; [1]
  Effect on the activity of Sirt3: inhibition (significant inhibitory effects (>25% loss of activity))
Sirt5; [2]
  Effect on the activity of Sirt5: inhibition (significant inhibitory effects (>25% loss of activity))
Sirt6; [2]
  Effect on the activity of Sirt6: inhibition (significant inhibitory effects (>25% loss of activity))

## c1ccc2c(c1)C(=Nc1ccc(N=C3c4ccccc4-c4ccccc43)cc1)c1ccccc1-2 [CSC2, N1,N4-di(9H-fluoren-9-ylidene)-1,4-benzenediamine]
Sirt2; [1]
  Effect on the activity of Sirt2: inhibition (significant inhibitory effects (>25% loss of activity))
Sirt3; [1]
  Effect on the activity of Sirt3: --- (no such effect)
Sirt5; [2]
  Effect on the activity of Sirt5: --- (no such effect)
Sirt6; [2]
  Effect on the activity of Sirt6: --- (no such effect)

## O=C1c2ccccc2-c2ccc(/N=[N+](\[O-])c3ccc4c(c3)C(=O)c3ccccc3-4)cc21 [CSC3]
Sirt2; [1]
  Effect on the activity of Sirt2: --- (no such effect)
Sirt3; [1]
  Effect on the activity of Sirt3: --- (no such effect)
Sirt5; [2]
  Effect on the activity of Sirt5: --- (no such effect)
Sirt6; [2]
  Effect on the activity of Sirt6: --- (no such effect)

## Cc1cc(N2CCOCC2)nc2ccc(Cc3ccc4nc(N5CCOCC5)cc(C)c4c3)cc12 [CSC4, 4-methyl-6-((4-methyl-2-(4-morpholinyl)-6-quinolinyl)methyl)-2-(4-morpholinyl)quinoline]
Sirt2; [1]
  Effect on the activity of Sirt2: inhibition (significant inhibitory effects (>25% loss of activity))
Sirt3; [1]
  Effect on the activity of Sirt3: --- (no such effect)
Sirt5; [2]
  Effect on the activity of Sirt5: --- (no such effect)
Sirt6; [2]
  Effect on the activity of Sirt6: --- (no such effect)

## O=C1c2ccccc2C(=O)c2c(Nc3cc4c5c(ccc6c7ccc8c9c(cc(Nc%10cccc%11c%10C(=O)c%10ccccc%10C%11=O)c(c3c56)c97)-c3ccccc3C8=O)C(=O)c3ccccc3-4)cccc21 [CSC6, 16,17-bis((9,10-dioxo-9,10-dihydro-1-anthracenyl)amino)anthra[9,1,2-cde]benzo[rst]pentaphene-5,10-dione]
Sirt2; [1]
  Effect on the activity of Sirt2: inhibition (significant inhibitory effects (>25% loss of activity))
Sirt3; [1]
  Effect on the activity of Sirt3: --- (no such effect)
Sirt5; [2]
  Effect on the activity of Sirt5: --- (no such effect)
Sirt6; [2]
  Effect on the activity of Sirt6: inhibition (significant inhibitory effects (>25% loss of activity))

## S=C(Nc1ccc2c(c1)Cc1ccccc1-2)Nc1ccc2c(c1)Cc1ccccc1-2 [CSC7, N,N'-di(9H-fluoren-2-yl)thiourea]
Sirt2; [1]
  Effect on the activity of Sirt2: inhibition (significant inhibitory effects (>25% loss of activity))
Sirt3; [1]
  Effect on the activity of Sirt3: --- (no such effect)
Sirt5; [2]
  Effect on the activity of Sirt5: --- (no such effect)
Sirt6; [2]
  Effect on the activity of Sirt6: --- (no such effect)

## CC(C)c1ccc(C=C2C=C(c3ccc4ccccc4c3)OC2=O)cc1 [CSC9, 3-(4-isopropylbenzylidene)-5-(2-naphthyl)-2(3H)-furanone]
Sirt2; [1]
  Effect on the activity of Sirt2: inhibition (significant inhibitory effects (>25% loss of activity))
Sirt3; [1]
  Effect on the activity of Sirt3: --- (no such effect)
Sirt5; [2]
  Effect on the activity of Sirt5: activation^c
Sirt6; [2]
  Effect on the activity of Sirt6: --- (no such effect)

## O=C(C[n+]1ccc2ccccc2c1)c1ccc2ccc3ccccc3c2c1 [CSC10, 2-(2^5-isoquinolin-2-yl)-1-(3-phenanthryl)ethanone]
Sirt2
  Effect on the activity of Sirt2: inhibition (key: inhibition: significant inhibitory effects (>25% loss of activity); ---: no such effect)
Sirt3
  Effect on the activity of Sirt3: inhibition (key: inhibition: significant inhibitory effects (>25% loss of activity); ---: no such effect)
Sirt5
  Effect on the activity of Sirt5: --- (key: inhibition: significant inhibitory effects (>25% loss of activity); ---: no such effect)
Sirt6
  Effect on the activity of Sirt6: inhibition (key: inhibition: significant inhibitory effects (>25% loss of activity); ---: no such effect)

## O=S1(=O)CCN(c2ccccc2CC(c2c[nH]c3ccccc23)c2c[nH]c3ccccc23)CC1 [CSC11, 3-(2-(2-(1,1-dioxido-4-thiomorpholinyl)phenyl)-1-(1H-indol-3-yl)ethyl)-1H-indole]
Sirt2; [1]
  Effect on the activity of Sirt2: --- (no such effect)
Sirt3; [1]
  Effect on the activity of Sirt3: --- (no such effect)
Sirt5; [2]
  Effect on the activity of Sirt5: --- (no such effect)
Sirt6; [2]
  Effect on the activity of Sirt6: --- (no such effect)

## O=S(=O)(c1ccc2ccccc2c1)N1CCN(S(=O)(=O)c2ccc3ccccc3c2)CC1 [CSC12, 1,4-bis(2-naphthylsulfonyl)piperazine]
Sirt2; [1]
  Effect on the activity of Sirt2: --- (no such effect)
Sirt3; [1]
  Effect on the activity of Sirt3: --- (no such effect)
Sirt5; [2]
  Effect on the activity of Sirt5: --- (no such effect)
Sirt6; [2]
  Effect on the activity of Sirt6: --- (no such effect)

## O=C1c2cc([N+](=O)[O-])ccc2-c2ccc3c4ccc5c6c(ccc(c7ccc1c2c73)c64)C(=O)c1cc([N+](=O)[O-])ccc1-5 [CSC14, 3,12bis(hydroxy(oxido)amino)anthra[9,1,2-cde]benzo[rst]pentaphene-5,10-dione, (Amanthrene Supra Black BBN)]
Sirt2
  Effect on the activity of Sirt2: inhibition (key: inhibition: significant inhibitory effects (>25% loss of activity); ---: no such effect)
Sirt3
  Effect on the activity of Sirt3: --- (key: inhibition: significant inhibitory effects (>25% loss of activity); ---: no such effect)
Sirt5
  Effect on the activity of Sirt5: inhibition (key: inhibition: significant inhibitory effects (>25% loss of activity); ---: no such effect)
Sirt6
  Effect on the activity of Sirt6: --- (key: inhibition: significant inhibitory effects (>25% loss of activity); ---: no such effect)

## Cc1nc2ccccc2nc1-c1ccc(/N=[N+](\[O-])c2ccc(-c3nc4ccccc4nc3C)cc2)cc1 [CSC15, 2-(4-(1-hydroxy-2-(4-(3-methyl-2-quinoxalinyl)phenyl)-1^5-diazenyl)phenyl)-3-methylquinoxaline]
Sirt2; [1]
  Effect on the activity of Sirt2: --- (no such effect)
Sirt3; [1]
  Effect on the activity of Sirt3: --- (no such effect)
Sirt5; [2]
  Effect on the activity of Sirt5: --- (no such effect)
Sirt6; [2]
  Effect on the activity of Sirt6: --- (no such effect)
